{
  "source": "paper PMC10458458",
  "about": "“Characterization of Anticancer Effects of the Analogs of DJ4, a Novel Selective Inhibitor of ROCK and MRCK Kinases” (Pharmaceuticals, 2023)",
  "origin": "cited, not measured here",
  "key": {"HeLa cells": {"tested_on": "HeLa cells", "design": "method as in PMID 10779382", "details": ">100 µM; cited from earlier work"}, "astrocytes": {"tested_on": "astrocytes", "design": "method as in PMID 22929997", "details": "10 µM; cited from earlier work"}},
  "data": [
    {"smiles": "C[C@@H](N)[C@H]1CC[C@H](C(=O)Nc2ccncc2)CC1", "note": "[Compound Y27632, Y27632]", "values": [
      {"measurement": "effect on cytokinesis", "setting": "HeLa cells", "value": "impaired cytokinesis"},
      {"measurement": "effect on proliferation and cell cycle", "setting": "astrocytes", "value": "promoted proliferation and progression of the cell cycle"}
    ]}
  ]
}
